# Measurements: patent US20250228835A1, “PYRIDINYLOXYPYRIDINES AND RELATED COMPOUNDS AND THEIR USE IN TREATING MEDICAL CONDITIONS” (Rectify Pharmaceuticals, Inc., priority 2024, published 2025)
# Legend:
# ABCD2 WT = biological target: T1, ABCD2 WT (Homo sapiens, UniProt Q9UBJ2); assay: D2 correction dose-response assay: ABCD2 WT HiBit protein expression; format: cell-based; details: HEK-293/ABCD2 WT cells, 24 hours treatment, HiBit luminescence; class combines EC50 and Mean MaxAct (fold); read-out: ABCD2 WT EC50, Emax
# T1 construct: expressed in transfected cells
# T1 sequence (Q9UBJ2 1-740): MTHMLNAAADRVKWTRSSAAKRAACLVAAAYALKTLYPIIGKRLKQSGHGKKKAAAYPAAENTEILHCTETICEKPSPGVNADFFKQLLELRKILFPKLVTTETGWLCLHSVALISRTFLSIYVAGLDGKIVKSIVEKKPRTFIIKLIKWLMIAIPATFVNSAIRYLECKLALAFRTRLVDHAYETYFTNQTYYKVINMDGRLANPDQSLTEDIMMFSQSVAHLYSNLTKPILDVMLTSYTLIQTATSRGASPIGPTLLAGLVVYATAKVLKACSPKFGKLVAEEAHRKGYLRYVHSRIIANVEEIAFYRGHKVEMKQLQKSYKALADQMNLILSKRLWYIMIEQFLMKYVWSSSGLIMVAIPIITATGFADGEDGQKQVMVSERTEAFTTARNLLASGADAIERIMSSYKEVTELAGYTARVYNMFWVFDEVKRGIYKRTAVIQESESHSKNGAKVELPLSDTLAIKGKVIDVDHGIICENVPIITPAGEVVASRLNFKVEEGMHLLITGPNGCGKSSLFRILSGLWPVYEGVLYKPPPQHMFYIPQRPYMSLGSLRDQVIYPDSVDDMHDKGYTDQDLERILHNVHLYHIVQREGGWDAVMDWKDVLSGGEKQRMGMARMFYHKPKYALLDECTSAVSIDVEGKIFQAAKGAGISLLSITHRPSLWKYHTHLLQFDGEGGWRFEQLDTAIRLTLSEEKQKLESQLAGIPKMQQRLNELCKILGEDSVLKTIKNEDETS
# Description: Exemplary compounds were evaluated in a D2 correction dose-response assay.
# (§1) To assess activity against ABCD2, the compounds were screened in an assay measuring protein expression, using cells transfected with cDNA encoding HiBit-tagged ABCD2 wild-type. Here we describe an assay for measuring the expression of the wild type of human ABCD2 (henceforth referred to as ABCD2 WT) and the use of this assay to measure the efficacy of compounds to increase the expression of ABCD2 WT. The assay was designed to characterize the efficacy and potency of compounds to increase the expression of ABCD2 WT by calculating an Emax and EC50 value. HEK-293 cells stably expressing ABCD2 WT (HEK-293/ABCD2 WT) were used for this assay and were maintained at 37° C. (5% CO2, humidified) in Dulbecco's Modified Eagle Medium (DMEM, Gibco product #12100) supplemented with 10% fetal bovine serum (Biosera product #FB-1058/500), 1% PenStrep (HDB product #15140-122), and 0.5 mg/mL puromycin (Gibco product #A11138-03). For the assay, the HEK-293/ABCD2 WT cells were seeded in white/opaque 384-well plates (Corning product #3570) at 10,000 cells/well in 20 μl growth medium and allowed to settle for 4 hours at 37° C. (5% CO2, humidified). Compound serial dilutions are prepared in DMSO as three hundred times (333×) the final concentration and using a dilution factor of 3 using Bravo (Agilent). After the four-hour incubation period, 60 nL of DMSO solutions are transferred to the assay plate.
# (§2) Dose response curves include eleven doses with the top final concentration at 30 μM in 0.3% DMSO. Liquid handling is performed with ECHO 550 Acoustic Liquid Handler (Labcyte). After addition of compound treatment, cells are incubated for 24 hours at 37° C. (5% CO2, humidified). After the 24-hour treatment, plates are allowed to equilibrate to room temperature for 10 minutes. Using Dragonfly Automated Liquid Handler (TTP LabTech), 20 μl of HiBit lytic assay reagent (Promega, product #N3040), which is prepared according to manufacturer's instructions, is added to each well. The plates are rotated at room temperature for 2 minutes and incubated for 1 hour at 25° C. before luminescent signal is acquired using an EnVision Multimode Plate Reader (PerkinElmer).
# ABCB4 WT = biological target: T2, ABCB4 WT (Homo sapiens, UniProt P21439); assay: ABCB4 WT assay: HiBit protein expression; format: cell-based; details: HEK-293 cells stably expressing HiBit-tagged ABCB4 WT; 24 h treatment; top concentration 30 μM; read-out: ABCB4 WT EC50, Emax
# T2 construct: expressed in transfected cells
# From the text: To assess activity against ABCB4, compounds were screened in an assay measuring protein expression, using cells transfected with cDNA encoding HiBit-tagged ABCB4 wild-type.
# as §1, with “Described here is” for “To assess activity against ABCD2, the compounds were screened in an assay measuring protein expression, using cells transfected with cDNA encoding HiBit-tagged ABCD2 wild-type. Here we describe”, “ABCB4” for “ABCD2”, “(HEK-293/ABCB4” for “(HEK-293/ABCD2”, “HEK-293/ABCB4” for “HEK-293/ABCD2”
# as §2
# Results are presented below in Table 5 for ABCB4 WT.
# T2 sequence (P21439 whole entry): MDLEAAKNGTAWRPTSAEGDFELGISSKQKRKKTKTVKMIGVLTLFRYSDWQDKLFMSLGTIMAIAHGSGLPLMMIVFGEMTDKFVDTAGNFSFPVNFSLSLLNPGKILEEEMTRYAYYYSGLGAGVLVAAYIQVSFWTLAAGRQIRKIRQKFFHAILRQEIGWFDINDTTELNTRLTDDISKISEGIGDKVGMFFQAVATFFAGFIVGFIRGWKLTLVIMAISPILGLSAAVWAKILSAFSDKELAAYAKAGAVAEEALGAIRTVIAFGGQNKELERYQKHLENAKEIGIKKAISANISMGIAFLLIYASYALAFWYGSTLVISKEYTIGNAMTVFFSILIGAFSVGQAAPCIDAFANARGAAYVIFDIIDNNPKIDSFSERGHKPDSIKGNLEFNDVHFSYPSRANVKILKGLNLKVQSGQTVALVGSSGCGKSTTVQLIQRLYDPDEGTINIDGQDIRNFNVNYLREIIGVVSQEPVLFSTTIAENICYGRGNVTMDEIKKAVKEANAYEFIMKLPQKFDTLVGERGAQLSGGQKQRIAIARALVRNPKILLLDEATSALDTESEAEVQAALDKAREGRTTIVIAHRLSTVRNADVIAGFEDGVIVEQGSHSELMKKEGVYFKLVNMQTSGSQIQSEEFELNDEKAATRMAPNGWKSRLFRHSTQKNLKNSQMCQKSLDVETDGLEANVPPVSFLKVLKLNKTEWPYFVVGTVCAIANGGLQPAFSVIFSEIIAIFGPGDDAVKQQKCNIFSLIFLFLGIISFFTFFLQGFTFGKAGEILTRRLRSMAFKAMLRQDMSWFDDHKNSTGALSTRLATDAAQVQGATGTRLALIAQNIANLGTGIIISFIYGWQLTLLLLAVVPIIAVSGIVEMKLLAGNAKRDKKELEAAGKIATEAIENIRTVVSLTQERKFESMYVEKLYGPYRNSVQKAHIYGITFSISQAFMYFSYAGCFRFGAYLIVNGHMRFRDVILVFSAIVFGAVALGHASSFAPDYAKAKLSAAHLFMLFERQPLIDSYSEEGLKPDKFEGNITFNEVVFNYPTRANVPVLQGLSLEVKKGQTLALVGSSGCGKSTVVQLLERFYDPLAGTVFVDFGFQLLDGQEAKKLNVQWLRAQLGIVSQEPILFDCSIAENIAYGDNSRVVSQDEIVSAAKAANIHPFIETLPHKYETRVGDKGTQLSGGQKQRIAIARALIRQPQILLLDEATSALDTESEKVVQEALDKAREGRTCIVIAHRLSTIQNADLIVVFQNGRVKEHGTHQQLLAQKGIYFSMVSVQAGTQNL
Compound,EC50 (ABCD2 WT),EC50 (ABCB4 WT)
Cc1cc(C(F)(F)F)nc(C2CC2)c1Oc1nc(-c2cncc(C#N)c2)ccc1S(=O)(=O)NC1CCOCC1 [Compound I-306],1 to 10 µM,≥ 25 µM
Cc1cc(C(F)(F)F)nc(C2CC2)c1Oc1nc(-c2cncc(C#N)c2)ccc1S(=N)(=O)c1cccnn1 (centres unmarked) [Compound I-296],< 1 µM,< 1 µM
Cc1cc(C)c(Oc2nc(-c3ccc(C#N)nc3)ccc2NS(C)(=O)=O)c(C)n1 [Compound I-7],< 1 µM,< 1 µM
Cc1cc(C(F)(F)F)nc(C2CC2)c1Oc1nc(-c2cncc(C#N)c2)ccc1N=S(C)(C)=O [Compound I-286],< 1 µM,≥ 25 µM
Cc1cc(C)[n+]([O-])c(C)c1Oc1nc(-c2cncc(C#N)c2)ccc1NS(C)(=O)=O [Compound I-311],1 to 10 µM,1 to 10 µM
Cc1cc(C(F)(F)F)nc(C2CC2)c1Oc1nc(-c2cncc(C#N)c2)ccc1NS(=O)(=O)C1CC1 [Compound I-140],< 1 µM,< 1 µM
Cc1cc(C(F)(F)F)nc(C2CC2)c1Oc1nc(-c2cncc(C#N)c2)ccc1N(C)S(=O)(=O)C1CC1 [Compound I-139],1 to 10 µM,< 1 µM
Cc1nc(Oc2nc(-c3cncc(C#N)c3)ccc2NS(C)(=O)=O)c(C2CC2)s1 [Compound I-300],< 1 µM,< 1 µM
Cc1cc(C)c(Oc2nc(-c3cncc(C#N)c3)ccc2N(C)S(=O)(=O)c2cccnc2)c(C2CC2)n1 [Compound I-136],1 to 10 µM,< 1 µM
Cc1nc(C)c(Oc2nc(-c3cncc(C#N)c3)ccc2N(C)S(C)(=O)=O)c(C2CC2)n1 [Compound I-157],10 to 25 µM,< 25 µM
Cc1cc(C)c(Oc2nc(-c3cccc(Cl)c3)ccc2S(=O)(=O)NC2CCOC2)c(C)c1 (centres unmarked) [Compound I-101],1 to 10 µM,≥ 25 µM
Cc1nc(C(F)(F)F)nc(C2CC2)c1Oc1nc(-c2cncc(Cl)c2)ccc1NS(C)(=O)=O [Compound I-151],< 1 µM,< 1 µM
Cc1cc(C2CC2)nc(C2CC2)c1Oc1nc(-c2cncc(C#N)c2)ccc1N(C)S(C)(=O)=O [Compound I-146],10 to 25 µM,≥ 25 µM
CNS(=O)(=O)c1ccc(-c2cncc(C#N)c2)nc1Oc1c(C)nc(C(F)(F)F)nc1C1CC1 [Compound I-315],10 to 25 µM,≥ 25 µM

# The remaining lines, values ahead:
EC50 (ABCD2 WT),EC50 (ABCB4 WT),Compound
1 to 10 µM,≥ 25 µM,Cc1nc(C(F)(F)F)nc(C2CC2)c1Oc1nc(-c2cncc(C#N)c2)ccc1N(C)S(C)(=O)=O [Compound I-142]
10 to 25 µM,1 to 10 µM,Cc1cc(C)c(Oc2nc(-c3cccc(C#N)c3)ccc2S(=N)(=O)C2CC2)c(C)n1 (centres unmarked) [Compound I-316]
10 to 25 µM,≥ 25 µM,Cc1cc(C(F)(F)F)nc(C2CC2)c1Oc1nc(-c2cccc(C#N)c2)ccc1S(=N)(=O)C1CC1 (centres unmarked) [Compound I-295]
< 1 µM,1 to 10 µM,Cc1cc(C(F)(F)F)nc(C2CC2)c1Oc1nc(-c2cncc(C#N)c2)ccc1S(=N)(=O)c1cccnc1 (centres unmarked) [Compound I-304]
1 to 10 µM,1 to 10 µM,Cc1cc(C)c(Oc2nc(-c3cncc(Cl)c3)ccc2S(=O)(=O)N2CCCC2)c(C)c1 [Compound I-96]
1 to 10 µM,1 to 10 µM,Cc1nc(C(F)(F)F)nc(C2CC2)c1Oc1nc(-c2cncc(C#N)c2)ccc1S(=O)(=O)NC1CC1 [Compound I-292]
< 1 µM,10 to 25 µM,Cc1cc(C(F)(F)F)nc(C2CC2)c1Oc1nc(-c2cncc(C#N)c2)ccc1S(=O)(=O)Nc1cccnc1 [Compound I-294]
1 to 10 µM,< 1 µM,Cc1cc(C)c(Oc2nc(-c3cncc(Cl)c3)ccc2S(C)(=N)=O)c(C)c1 (centres unmarked) [Compound I-103]
1 to 10 µM,< 1 µM,Cc1nc(C(F)(F)F)nc(C2CC2)c1Oc1nc(-c2cncc(C#N)c2)ccc1S(=O)(=O)Nc1cnn(C)c1 [Compound I-309]
< 1 µM,< 1 µM,Cc1nc(N2CC(C#N)C2)nc(C)c1Oc1nc(-c2cncc(C#N)c2)ccc1NS(C)(=O)=O [Compound I-159]
> 25 µM,≥ 25 µM,Cc1nc(C(F)(F)F)nc(C2CC2)c1Oc1nc(-c2cncc(C#N)c2)ccc1S(=N)(=O)C1CC1 (centres unmarked) [Compound I-303]
< 1 µM,< 25 µM,Cc1cc(C)c(Oc2nc(-c3cncc(Cl)c3)ccc2S(=O)(=O)NC2CC2)c(C)c1 [Compound I-98]
< 1 µM,< 1 µM,Cc1nc(C2CC2)nc(C2CC2)c1Oc1nc(-c2cncc(C#N)c2)ccc1NS(C)(=O)=O [Compound I-150]
1 to 10 µM,≥ 25 µM,Cc1cc(C)c(Oc2nc(-c3c[nH]c(=O)c(C#N)c3)ccc2NS(C)(=O)=O)c(C)n1 [Compound I-307]
< 1 µM,≥ 25 µM,Cc1cc(C(F)(F)F)nc(C2CC2)c1Oc1nc(-c2cncc(C#N)c2)ccc1N(C)S(C)(=O)=O [Compound I-156]
< 1 µM,≥ 25 µM,Cc1cc(C)c(Oc2nc(-c3cncc(Cl)c3)ccc2S(N)(=O)=O)c(C)c1 [Compound I-100]
< 1 µM,< 1 µM,CNS(=O)(=O)c1ccc(-c2cncc(Cl)c2)nc1Oc1c(C)cc(C)cc1C [Compound I-95]
